Data taken from patent US20200129528A1, “METHODS FOR TREATING BLOOD PRESSURE CONDITIONS USING AMINOSTEROL COMPOSITIONS” (Enterin, Inc., priority 2018, published 2020).
Values joined by “and” are separate entries in the source; they are usually repeats but may differ in a detail not shown here. Equal entries are not always repeated.

Assays:
Type in all cases: in vivo, human
[1] = system: patients with PD and constipation; assay: Phase 2 trial Stage 1: adverse events; conditions: Stage 1, 10 dosed
Text: Tolerability limits included diarrhea or vomiting.

[2] = system: patients with PD and constipation; assay: Phase 2 trial Stage 2: adverse events
Procedure: In Stage 2, 34 patients were evaluated. […] This dose was then maintained (“fixed dose”) fir an additional 3-5 days.

[3] = system: patients with PD and constipation; assay: Phase 2 trial: adverse events in all 44 dosed patients
Procedure: Fifty patients were enrolled and 44 were dosed. In Stage 1, 10 patients were dosed, 1 (10%) withdrew prior to completion and 9 (90%) completed dosing. In stage 2, 6 (15%) patients had ≥3 CSBM/week at the end of the run-in period and were excluded, 34 patients were dosed and bowel response was assessable in 31 (91%). Two patients (5.8%) were terminated prior to completion because of recurrent dizziness, and 3 others withdrew during dosing (8.8%): 2 because of diarrhea and 1 because of holiday. Fifteen patients were randomized.
Most AEs were confined to the GI tract (88% in Stage 1 and 63% in Stage 2). The most common AE was nausea which occurred in 4/10 (40%) patients in Stage 1 and in 18/34 (52.9%) in Stage 2 (Table 2). Diarrhea occurred in 4/10 (40%) patients in Stage 1 and 15/34 (44%) in Stage 2. One patient withdrew because of recurrent diarrhea. Other GI related AEs included abdominal pain 11/44 […], flatulence 3/44 (6.8%), vomiting 3/44 (6.8%), worsening of acid reflux 2/44 (4.5%), and worsening of hemorrhoids 1/44 (2.2%). […] The only other noteworthy AE was dizziness 8/44 (18%). Dizziness was graded as moderate in one patient who was receiving an alpha-adrenergic blocking agent (Terazosin). This patient was withdrawn from the study and recovered spontaneously.

[4] = system: patients with PD and constipation; assay: Neurological (CNS) symptoms in Stage 2: UPDRS, MMSE, PDHQ, BDI-II; conditions: for patients in whom hallucinations or delusions improved or disappeared during treatment: 6 patients with hallucinations (5) or delusions (1) at baseline
Text: (8) Beck Depression Inventory (BDI-II);
(9) Unified Parkinson's Disease Rating Scale (UPDRS), which consists of 42 items in four subscales (Part I=Non-Motor Aspects of Experiences of Daily Living (nM-EDL) (1.1 cognitive impairment, 1.2 hallucinations and psychosis, 1.3 depressed mood, Part II=Motor Aspects of Experiences of Daily Living (M-EDL), Part III=Motor Examination, and Part IV=Motor Complications;
(10) Mini Mental State Examination (MMSE);
(12) The University of Miami Parkinson's Disease Hallucinations Questionnaire (UM-PDHQ);
Exploratory end-points, in addition to constipation, included for example, (i) depression assessed using the Beck Depression Inventory (BDI-II) (Steer et al. 2000) and Unified Parkinson's Disease Rating Scale (UPDRS); (ii) cognition assessed using the Mini Mental State Examination (MMSE) (Palsteia et al. 2018), Unified Parkinson's Disease Rating Scale (UPDRS), and Trail Making Test (TMT); (iii) sleep and REM-behavior disorder (RBI)) using a daily sleep diary, I-Button Temperature Assessment, a REM sleep behavior disorder (RBD) questionnaire (RBDQ) (Stiasny-Kolster et al. 2007), and the UPDRS; (iv) hallucinations assessed using the PD hallucinations questionnaire (PDHQ) (Papapetropoulos et al. 2008), the UPDRS, and direct questioning; (v) fatigue using the Parkinson's Disease Fatigue Scale (PFS-16) and the UPDRS; (vi) motor functions using the UPDRS; and (vii) non-motor functions using the UPDRS.
Assessments were made at baseline and at the end of the fixed dose and washout periods. Circadian system status was evaluated by continuously monitoring wrist skin temperature (Thermochron iButton DS1921H; Maxim, Dallas) following published procedures (Sarabia et al. 2008).
An exploratory analysis was done with respect to the sleep data, the body temperature data, mood, fatigue, hallucinations, cognition and other motor and non-motor symptoms of PD. Continuous measurements within a subject were compared with a paired t-test and continuous measurements between subject groups were compared with a two-group t-test. Categorical data were compared with a chi-squared test or a Fisher's exact test if the expected cell counts are too small for a chi-squared test.

[5] = system: patients with PD and constipation; assay: Systolic blood pressure in Stage 1 (single dose); conditions: lying position
Text: Normalization refers to lowering high blood pressure and raising low blood pressure into normal ranges. The numbers shown in the graph represent baseline BP then highest treatment BP, both in the lying position, pre-medication. The result is significant despite the small sample size (p=0.01).

CC(C)[C@@H](CC[C@@H](C)[C@H]1CC[C@H]2[C@@H]3[C@H](O)C[C@H]4C[C@@H](NCCCNCCCCN)CC[C@]4(C)[C@H]3CC[C@]12C)OS(=O)(=O)O (single isomer, unassigned) [ENT-01, squalamine]
Abdominal pain, mild [1]: 2(20) n, % | Abdominal pain, moderate [1]: 3(30) n, % | Diarrhea, mild [1]: 1(10) n, % | Diarrhea, moderate [1]: 3(30) n, % | Flatulence, mild [1]: 2(20) n, % | Headache, mild [1]: 1(10) n, % | Vomiting, mild [1]: 1(10) n, % | Blood in urine, mild ([1]; unrelated to ENT-01): 1(10) n, % | Loss of appetite, mild ([1]; unrelated to ENT-01): 1(10) n, % | patients who withdrew during dosing because of diarrhea ([2]; Stage 2): 2 | Difficulty falling asleep, mild ([2]; Stage 2, 34 dosed): 1(3)^ n, % | Eye infection, mild ([2]; Stage 2, 34 dosed): 1(3)^ n, % | Flatulence, mild ([2]; Stage 2, 34 dosed): 1(3)^ n, % | Urinary retention, mild ([2]; Stage 2, 34 dosed): 1(3)^ n, % | Urinary tract infection, mild ([2]; Stage 2, 34 dosed): 1(3)^ n, % | Worsening hemorrhoid, mild ([2]; Stage 2, 34 dosed): 1(3)^ n, % | outcome of all other AEs ([3]; human, in vivo): resolved spontaneously without discontinuation | lower GI bleed (serious adverse event), relation to drug ([3]; one patient, during the withdrawal period, on aspirin, naproxen and clopidogrel): unrelated to study medication | time without return of hallucinations/delusions after discontinuation ([4]; 1 patient): 4 weeks | patients in whom hallucinations or delusions improved or disappeared during treatment [4]: five | patients in whom hallucinations or delusions improved or disappeared during treatment ([4]; listed as aminosterol): five and 5 of 6 | patients in whom hallucinations or delusions improved or disappeared during treatment ([4]; listed as squalamine (ENT-01)): 5 of 6 | time without return of hallucinations/delusions after discontinuation ([4]; another patient): 2 weeks | effect on systolic BP [5]: normalization of systolic BP
